Results taken from patent US8409550B2, “Method for treating skin with retinoids and retinoid boosters” (Unilever Home & Personal Care, USA, Division of Conopco, …, priority 2000, dated 2013).
Like-named read-outs stand apart in the source and are kept apart here.

Legend:
ARAT = experiment: Assay for ARAT activity, bovine RPE microsomes (to identify B1); type: biochemical; details: for % Inhibition ARAT (100 jm): compound 100 jm; for % Inhibition ARAT (10 jm): compound 10 jm
Protocol: (§1) 2.1 Isolation of RPE Microsomes (Modified from (1))
(§2) 50 frozen hemisected bovine eyecups, with the retina and aqueous humor removed were obtained from W. L. Lawson Co., Lincoln, Nebr., USA. The eyes were thawed overnight and the colored iridescent membrane was removed by peeling with forceps. Each eyecup was washed with 2× 0.5 mL cold buffer (0.1M PO4/1 mM DTT/0.25N sucrose, pH 7) by rubbing the darkly pigmented cells with an artist's brush or a rubber policeman. The cell suspension was added to the iridescent membranes and the suspension was stirred for several minutes in a beaker with a Teflon stir bar.
(§3) The cell homogenate was centrifuged for 30 min. at 20,000 g (Sorvaal model RC-5B centrifuge with an SS34 rotor in 2.5×10 cm tubes at 14,000 RPM). The resulting supernatant was subjected to further centrifugation for 60 min. at 150,000 g (Beckman model L80 Ultracentrifuge with an SW50.1 rotor in 13×51 mm tubes at 40,000 RPM). The resulting pellets were dispersed into ˜5 mL 0.1M PO4/5 mM DTT, pH 7 buffer using a Heat Systems Ultrasonics, Inc. model W185D Sonifier Cell Disrupter, and the resulting microsomal dispersion was aliquoted into small tubes and stored at −70° C. The protein concentrations of the microsomes were determined using the BioRad Dye binding assay, using BSA as a standard.
(§4) 2.3 Assay for ARAT and LRAT Activity (to Identify B1)
(§5) The procedure below was a modification of a method described in the literature (2). The following buffer was prepared and stored at 4° C.: 0.1M PO4 5 mM dithiothreitol, pH 7.0 (PO4/DTT). On the day of the assay, 2 mg BSA per mL of buffer was added to give a PO4/DTT/BSA working buffer. 1 mM retinol substrate was prepared in acetonitrile and stored in amber bottles under nitrogen gas at −20° C. Solutions of 4 mM Palmitoyl-CoA in working buffer (stored in aliquots) and 4 mM dilauroyl phosphatidyl choline in ethanol were prepared and stored at −20° C. Inhibitors were prepared as 10 mM stock solutions in H2O, ethanol, acetonitrile or DMSO. The quench solution was prepared using pure ethanol containing 50 μg/mL butylated hydroxytoluene (BHT), and a hexane solution containing 50 μg/mL BHT was used for the extractions.
(§6) The mixture was incubated for 5 min. at 37° C. to equilibrate the reaction temperature and then 5 μL 1 mM retinol was added. The vials were capped, vortexed for 5 seconds and incubated for 30-90 minutes at 37° C. The reaction was quenched by adding 0.5 mL ethanol/BHT. The retinoids were extracted by adding 3 mL hexane/BHT, vortexing the tubes for several seconds several times and centrifuging the tubes at low speed for 5 min. to quickly separate the layers. The upper hexane layer was removed into a clean vial, and the aqueous layer re-extracted with another 3 mL hexane/BHT, as described above. The hexane layers were combined, and the hexane evaporated by drying at 37° C. under a stream of nitrogen gas on a heated aluminum block. The dried residue was stored at −20° C. until HPLC analysis. The amount of retinyl palmitate and retinyl laurate was quantitated for ARAT and LRAT activity, respectively, by integration of the HPLC signal as described below.
(§7) Note that the incubation solution contains 40 μM acyl donor, 100 μM or less inhibitor, 10 uM retinol, approximately 30 μg/mL microsomal protein, and nearly 0.17 PO4/pH 7/5 mM DTT/2 mg/mL BSA. All steps subsequent to the addition of retinol were done in the dark or under amber lights.
(§8) Samples for retinoid quantitation by HPLC were prepared by dissolving the residue in each vial with 100 μL of methanol. […] Aliquots of 60 μL were injected immediately and analysed for retinoid content.
(§9) Two HPLC protocols were used for retinoid analysis.
(§10) These protocols were selected based on their ability to clearly resolve pertinent retinoid acids, alcohols, aldehydes, and/or esters for each assay and relative quickness of separation.

[1] = system: transglutaminase (TGase I); experiment: Transglutaminase (Tgase) ELISA assay in cultured keratinocytes with retinol and boosters; type: cell-based, human; details: for TG as % C Compd 1 / TG as % C Compd 2 / TG as % C, Compd 3: concentration one log below IC20; for IC20: IC20 (80% of control); for TG as % C, Compd 3: Compound 3 alone
Protocol: For this reason, a transalutaminase (Tgase) assay was utilised.
Thus TGase I is a useful marker of epidermal keratinocyte differentiation with high TGase I levels indicating a more differentiated state. An ELISA based TGase I assay, using a TGase I antibody, was used to assess the state of differentiation of the cultured keratinocytes in the examples that follow.
Keratinocytes (cultured as described above) were plated in 96 well plates at a density of 4,000-5,000 cells per well in 200 μl media. After incubation for two to three days, or until cells are ˜50% confluent, the media was changed to media containing test compounds (five replicates per test). The cells were cultured for a further 96 hours after which time the media was aspirated and the plates stored at −70° C. Plates were removed from the freezer, and the cells were washed twice with 200 μl of 1×PBS. The cells were incubated for one hour at room temperature (R/T) with TBS/5% BSA (wash buffer, bovine serum albumin). Next the TGase primary antibody was added: 50 μl of monoclonal anti-Tgase I Ab B.C. diluted 1:2000 in wash buffer. The primary antibody was incubated for 2 hours at 37° C. and then rinsed 6× with wash buffer. Cells were then incubated with 50 μl of secondary antibody (Fab fragment, peroxidase conjugated anti-mouse IgG obtaining from Amersham) diluted 1:4,000 in wash buffer for two hours at 37° C., then rinsed three times with wash buffer. Following the rinse with washing buffer, the cells were rinsed 3× with PBS. For colourimetric development, the cells were incubated with 100 μl substrate solution (4 mg o-phenylenediamine and 3.3 μl 30% H2O2 in 10 ml 0.1M citrate buffer pH 5.0) for exactly five minutes, R/T, in darkness (under aluminum foil). The reaction was stopped by the addition of 50 μl 4 N H2SO4. […] Out of the five replicates, four were treated with both antibodies, the fifth one was use as a Tgase background control. Tgase levels were determined and expressed as percentage control.
A suspension of keratinocytes was prepared at a concentration of 3000 cells/200 μl/well in KGM medium (Used 3×10^5 cells/12 ml media in each microtitre plate)
200 μl of the keratinocyte suspension was transferred into each of the inner 60 wells only.
Each plate was incubated at 37° C. and 5% CO2 for 3 days or until cells are ˜50% confluent.
Stock solutions of the samples were prepared in DMSO.
The samples were diluted to desired concentration with the final assay concentration of DMSO being 0.1%.

LRAT = target: T1, LRAT (Bos taurus, UniProt Q9BGL2); experiment: Assay for LRAT activity, bovine RPE microsomes (to identify B1); type: biochemical; details: for % Inhibition LRAT (100 jm): compound 100 jm
T1 construct: followed by approximately 15 μg of RPE microsomal protein; tissue W. L. Lawson Co., Lincoln, Nebr., USA (eyecups); host or cells: bovine retinal pigment epithelium microsomes
T1 sequence (Q9BGL2 1-230): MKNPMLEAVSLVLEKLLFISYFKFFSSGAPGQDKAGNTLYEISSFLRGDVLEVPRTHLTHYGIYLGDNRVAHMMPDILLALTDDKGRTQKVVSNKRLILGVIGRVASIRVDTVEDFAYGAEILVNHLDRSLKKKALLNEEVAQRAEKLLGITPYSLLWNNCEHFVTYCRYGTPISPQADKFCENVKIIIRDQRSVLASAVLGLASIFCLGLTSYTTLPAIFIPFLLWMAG
Protocol: as §1, §2, §3, §4, §5, §6, §7, §8, §9, §10

[2] = Compound 1 alone, in the presence of 10^-7M retinol
[3] = compound tested individually in the presence of 10^-7 M retinol
[4] = Compound 2 alone, in the presence of 10^-7M retinol
[5] = Tgase inhibition, compound tested individually in the presence of 10^-7 M retinol, read-out: IC50
[6] = in the presence of 10^-7M retinol

In the case of `CC(C)(O)CCCC1=CCC(C=O)CC1` (stereo not drawn) [Lyral], the “% Inhibition ARAT (100 jm)” value (ARAT) is reported as 76%, the “TG as % C Compd 1” value [1, 2] is reported as 97 % C and the IC20 [1, 3] is reported as 40 µM. For the same compound, the “TG as % C Compd 1” value ([1]; compound 1 alone, with retinol) was 120 % C.
With `CC(C)=CCCC(C)=CC=O` [Citral] the “% Inhibition ARAT (100 jm)” value (ARAT) was 20%.
With `O=C1CCc2ccccc2N1` [3,4-dihydro-2 quinolinone, 3,4,-Dihydro-2(1H)-quinolinone(Hydrocarbostyril)] the “TG as % C Compd 2” value ([1]; compound 2 alone, with retinol) was 102 % C.
For `O=C(O)CCCCCCCCCCCCCCC(=O)O` [Hexadecanedioic Acid], the “TG as % C Compd 2” value [1, 4] was 90 % C, the IC20 [1, 3] was 84 µM and the IC50 [1, 5] was 130 µM. The “TG as % C Compd 2” value ([1]; compound 2 alone, with retinol) was 125 % C.
`CCCCCCCCCCCCCCCCC(O)C(=O)O` (stereo not drawn) [2-hydroxysteric acid, 2-Hydroxystearic acid] was tested, and the “TG as % C Compd 2” value [1, 4] was 83 % C and the “TG as % C Compd 1” value ([1]; compound 1 alone, with retinol) was 92 % C.
`CCCCCCC(O)CCCCCCCCCCC(=O)O` (stereo not drawn) [12-Hydroxystearic Acid] was tested, and the “TG as % C, Compd 3” value [1, 6] was 95 % C, the IC50 ([1]; Homo sapiens, Keratinocyte, B4 table, with 10^−7 M retinol, read-out: Overall TG (IC 50)) was 29.1 µM and the IC20 [1, 3] was 14.5 µM.
In the case of `CC/C=C\C/C=C\C/C=C\CCCCCCCC(=O)O` [Linolenic Acid], the “TG as % C, Compd 3” value [1, 6] is reported as 208 % C and the IC20 [1, 3] is reported as 121 µM.
With Castor Oil MEA the IC50 ([1]; B1 table, booster concentration which with 10^−7 M retinol inhibits TGase by 50%, same values in the 19th table (Molar), read-out: Overall TG (IC 50)) was 32.5 µM, the IC50 [1, 5] was 32.5 µM and the “TG as % C Compd 1” value ([1]; compound 1 alone, with retinol) was 110 % C. The “TG as % C Compd 1” value ([1]; compound 1 alone, with retinol, listed as Caster oil MEA) was 96 % C.
For `O=C1CCc2ccccc2N1`, the “TG as % C Compd 2” value [1, 4] was 90 % C and the “TG as % C, Compd 3” value [1, 6] was 90 % C.
[…]-Ionone was tested, and the “TG as % C Compd 1” value [1, 2] was 68 % C.
Damascenone was tested, and the “% Inhibition LRAT (10 jm)” value (LRAT; compound 10 jm) was 29% and the “% Inhibition LRAT (100 jm)” value (LRAT) was 79%.
In the case of `CC(C)CCCCCCCCCCCCCCC(=O)O` [Isostearic Acid], the “TG as % C Compd 2” value [1, 4] is reported as 87 % C, the IC20 [1, 3] is reported as 62.3 µM and the “TG as % C Compd 2” value ([1]; compound 2 alone, with retinol) is reported as 146 % C.
In the case of Coco Trimethyl-ammonium Cl—, the “% Inhibition ARAT (100 jm)” value (ARAT) is reported as 27%.
With Dimethyl imidazolinone the “TG as % C Compd 2” value [1, 4] was 87 % C and the “TG as % C, Compd 3” value [1, 6] was 87 % C.
For `CC(C)=CCC/C(C)=C/CO` [Geraniol], the “% Inhibition ARAT (10 jm)” value (ARAT) was 13%, the “% Inhibition ARAT (100 jm)” value (ARAT) was 32% and the “TG as % C, Compd 3” value [1, 6] was 105 % C. For the same compound, the IC20 [1, 3] was 4720 µM.
With Gamma-Methyl Ionone the “% Inhibition LRAT (100 jm)” value (LRAT) was 38%.
`CCCCC/C=C\C/C=C\CCCCCCCC(=O)NCCCN(C)C` [Linoleamidopropyl Dimethylamine] was tested, and the “% Inhibition ARAT (100 jm)” value (ARAT) was 69% +/− 18.
`CC(C)=CCCC(C)=CCCC(C)=CCO` [Farnesol] was tested, and the “% Inhibition ARAT (10 jm)” value (ARAT) was 23% +/− 18, the “% Inhibition ARAT (100 jm)” value (ARAT) was 53% +/− 18 and the “TG as % C, Compd 3” value [1, 6] was 118 % C. The IC20 [1, 3] was 78.2 µM and the “TG as % C Compd 1” value ([1]; compound 1 alone, with retinol) was 98 % C.
With `CC(=O)/C=C/C1C(C)=CCCC1(C)C` (stereo not drawn) [a-Ionone] the “TG as % C, Compd 3” value [1, 6] was 88 % C.
With `CCCCC/C=C\C/C=C\CCCCCCCC(=O)NCCO` [Linoleoyl Monoethanolamide (LAMEA)] the “TG as % C, Compd 3” value [1, 6] was 127 % C.
For Dimethyl Imidazolidinone, the “% Inhibition Overall TG (—ROH/RE)” value ([1]; % (booster+retinol inhibition/control inhibition) − % (ROH inhibition/control inhibition)) was 22% and the “TG as % C Compd 1” value ([1]; compound 1 alone, with retinol) was 99 % C.
With `CC(/C=C/C=C(\C)C(=O)O)=C\C=C\C=C(C)\C=C\C=C(/C)C(=O)O` [Crocetin] the “% Inhibition ARAT (10 jm)” value (ARAT) was 15%, the “% Inhibition ARAT (100 jm)” value (ARAT) was 34% and the “TG as % C, Compd 3” value [1, 6] was 90 % C. For the same compound, the IC20 [1, 3] was 25.2 µM.
With `CCCCCCCC/C=C/CCCCCCCC(=O)O` [Elaidic Acid] the “TG as % C Compd 1” value [1, 2] was 93 % C, the “TG as % C, Compd 3” value [1, 6] was 93 % C and the IC20 [1, 3] was 58.8 µM. The IC50 [1, 5] was 65 µM and the “TG as % C Compd 2” value ([1]; compound 2 alone, with retinol) was 144 % C.
In the case of Dimethyl imidazoline, the “TG as % C Compd 2” value ([1]; compound 2 alone, with retinol) is reported as 112 % C.
For `CC(=O)c1cc2c(cc1C)C(C)(C)[C@H](C)[C@H]2C(C)C` [Traseolide], the “% Inhibition ARAT (100 jm)” value (ARAT) was 41%.
`CCCCCCCCCCCC1=NCCN1CCO` [Lauryl Hydroxyethylimidazoline] was tested, and the IC50 ([1]; B5 table, with 10^−7 M retinol, read-out: Overall TG (IC 50)) was 0.467 µM, the “TG as % C, Compd 3” value [1, 6] was 52 % C and the IC20 [1, 3] was 0.269 µM. The IC50 [1, 5] was 0.467 µM, the “TG as % C Compd 2” value ([1]; compound 2 alone, with retinol) was 73 % C and the “TG as % C Compd 2” value ([1]; compound 2 alone, with retinol, listed as Lauryl hydorxyimidazoline) was 106 % C. The “TG as % C Compd 2” value ([1]; compound 2 alone, with retinol, listed as Lauryl hydroxyethylimiazoline) was 98 % C.
In the case of `CC1=C(/C=C/C(C)=C/C=C/C(C)=C/CO)C(C)(C)CCC1` [retinol, All-trans-retinol, reference compound], the “inhibition of transglutaminase production (maximal)” value ([1]; 1 μM retinoid, day 2, keratinocytes 4000 cells/well) is reported as 55%.
